The target in assay [1] is KRas WT (Homo sapiens, UniProt P01116). Put plainly: KRas binding assay (TR-FRET displacement), KRas WT. The note with it: single point, 10 nM compound. (TR-FRET usually uses a lanthanide donor and a delayed reading to cut background.)
Assay [2] addresses KRas G12A (Homo sapiens, UniProt P01116, G12A). In kind it is binding. To be noted: single point, 10 nM compound, read-out: Binding to KRas (% inhibition at 10 nM) G12A.
The target in assay [3] is KRas G12C (Homo sapiens, UniProt P01116, G12C). It is filed as binding. To be noted: single point, 10 nM compound, read-out: Binding to KRas (% inhibition at 10 nM) G12C.
KRas G12C, sequence (P01116 1-169 isoform P01116-2 G12C): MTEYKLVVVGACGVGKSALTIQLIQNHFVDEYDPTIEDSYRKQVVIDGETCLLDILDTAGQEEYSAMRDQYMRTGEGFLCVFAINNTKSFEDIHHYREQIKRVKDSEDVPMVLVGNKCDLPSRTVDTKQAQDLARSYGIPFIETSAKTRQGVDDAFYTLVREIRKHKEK
The target of assay [4] is KRas G12S (Homo sapiens, UniProt P01116, G12S). It is filed as binding. The note with it: single point, 10 nM compound, read-out: Binding to KRas (% inhibition at 10 nM) G12S.
KRas G12S, sequence (P01116 1-169 isoform P01116-2 G12S): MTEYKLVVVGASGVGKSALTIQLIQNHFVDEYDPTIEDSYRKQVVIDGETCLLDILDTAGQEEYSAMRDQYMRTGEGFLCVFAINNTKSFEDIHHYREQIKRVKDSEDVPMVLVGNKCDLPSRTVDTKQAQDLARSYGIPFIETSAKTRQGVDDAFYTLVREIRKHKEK
The target in assay [5] is KRas G13D (Homo sapiens, UniProt P01116, G13D). In kind it is binding. To be noted: single point, 10 nM compound, read-out: Binding to KRas (% inhibition at 10 nM) G13D.
KRas G13D, sequence (P01116 1-169 isoform P01116-2 G13D): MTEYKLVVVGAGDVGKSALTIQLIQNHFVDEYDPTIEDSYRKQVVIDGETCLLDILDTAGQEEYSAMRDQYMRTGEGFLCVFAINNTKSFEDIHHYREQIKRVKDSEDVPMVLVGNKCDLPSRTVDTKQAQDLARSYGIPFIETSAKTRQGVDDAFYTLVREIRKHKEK
The target in assay [6] is KRas Q61H (Homo sapiens, UniProt P01116, Q61H). Put plainly: KRas binding assay (TR-FRET displacement), KRas Q61H. The note with it: single point, 10 nM compound.
KRas Q61H, sequence (P01116 1-169 isoform P01116-2 Q61H): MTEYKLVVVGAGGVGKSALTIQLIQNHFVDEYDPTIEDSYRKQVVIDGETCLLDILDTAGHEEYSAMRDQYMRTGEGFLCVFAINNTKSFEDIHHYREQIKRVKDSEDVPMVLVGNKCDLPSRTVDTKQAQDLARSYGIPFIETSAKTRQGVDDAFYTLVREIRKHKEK
For assay [7], the system named is MKN1 cells. Put plainly: Inhibition of KRas-mediated phosphorylation of ERK (Cisbio HTRF pERK), MKN1 cells. It is filed as cell-based. To be noted: Homo sapiens, MKN-1, 3 hour compound incubation, Cisbio pERK HTRF. In a few lines:
(§1)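 Seeding density of 6,000 cells per well was used, with cultures kept in RPMI/10% FBS from day 1.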

The subject of assay [8] is PSN1 cells. Put plainly: Inhibition of KRas-mediated phosphorylation of ERK (Cisbio HTRF pERK), PSN1 cells. The note with it: Homo sapiens, PSN1, 3 h, 3 hour compound incubation, Cisbio pERK HTRF. In kind it is cell-based. In short, it runs like this: as §1
Assay [9] has as its system ASPC1 cells. Put plainly: Inhibition of KRas-mediated phosphorylation of ERK (Cisbio HTRF pERK), ASPC1 cells. In kind it is cell-based. The note with it: Homo sapiens, AsPC-1 cells; for IC50: ASPC1, 3 h, 3 hr compound incubation, Cisbio pERK HTRF; for inhibition at 0.1 µM: ASPC1, single point at 100 nM, 3 hrs compound incubation.
Assay [10] concerns H727 cells. Put plainly: Inhibition of KRas-mediated phosphorylation of ERK (Cisbio HTRF pERK), H727 cells. In kind it is cell-based. To be noted: Homo sapiens; for IC50: NCI-H727, 3 h, 3 hr compound incubation, Cisbio pERK HTRF; for inhibition at 0.1 µM: NCI-H727, single point at 100 nM, 3 hrs compound incubation.
The subject of assay [11] is A549 cells. The experiment in a line: Inhibition of KRas-mediated phosphorylation of ERK (Cisbio HTRF pERK), A549 cells. It is filed as cell-based. To be noted: Homo sapiens; for IC50: A549, 3 h, 3 hr compound incubation, Cisbio pERK HTRF; for inhibition at 0.1 µM: single point at 100 nM, 3 hrs compound incubation.
Assay [12] concerns H460 cells. The experiment in a line: Inhibition of KRas-mediated phosphorylation of ERK (Cisbio HTRF pERK), H460 cells. The note with it: Homo sapiens; for IC50: NCI-H460, 3 h, 3 hr compound incubation, Cisbio pERK HTRF; for inhibition at 0.1 µM: NCI-H460, single point at 100 nM, 3 hrs compound incubation. It is filed as cell-based.
Assay [13] concerns HCT116 cells. Put plainly: Inhibition of KRas-mediated phosphorylation of ERK (Cisbio HTRF pERK), HCT116 cells. It is filed as cell-based. To be noted: Homo sapiens; for IC50: HCT-116, 3 h, 3 hr compound incubation, Cisbio pERK HTRF; for inhibition at 0.1 µM: HCT-116, single point at 100 nM, 3 hrs compound incubation.
Assay [14] relates to H358 cells. The experiment in a line: Inhibition of KRas-mediated phosphorylation of ERK (Cisbio HTRF pERK), H358 cells. The note with it: Homo sapiens; for IC50: NCI-H358, 3 h, 3 hr compound incubation, Cisbio pERK HTRF; for inhibition at 0.1 µM: NCI-H358, single point at 100 nM, 3 hrs compound incubation. In kind it is cell-based.
The target of assay [15] is KRas G12D (Homo sapiens, UniProt P01116, G12D). Put plainly: biochemical. To be noted: Binding to KRas (IC50 nM) G12D, TR-FRET displacement, KRas G12D.
KRas G12D, sequence (P01116 1-169 isoform P01116-2 G12D): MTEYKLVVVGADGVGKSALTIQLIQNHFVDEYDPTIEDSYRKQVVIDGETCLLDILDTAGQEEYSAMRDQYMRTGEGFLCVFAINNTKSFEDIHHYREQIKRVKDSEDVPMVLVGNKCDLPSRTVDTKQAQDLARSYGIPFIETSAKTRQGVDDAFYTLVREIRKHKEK
Assay [16] has as its target KRas G12R (Homo sapiens, UniProt P01116, G12R). Put plainly: biochemical. To be noted: Binding to KRas (IC50 nM) G12R, TR-FRET displacement, KRas G12R.
Assay [17] deals with KRas G12V (Homo sapiens, UniProt P01116, G12V). Put plainly: biochemical. To be noted: Binding to KRas (IC50 nM) G12V, TR-FRET displacement, KRas G12V.
KRas G12V, sequence (P01116 1-169 isoform P01116-2 G12V): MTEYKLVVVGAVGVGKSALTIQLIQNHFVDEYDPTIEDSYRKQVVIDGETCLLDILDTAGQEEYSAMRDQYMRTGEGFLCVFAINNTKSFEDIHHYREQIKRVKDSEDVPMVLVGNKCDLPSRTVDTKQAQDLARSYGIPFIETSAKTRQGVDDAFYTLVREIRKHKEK

Structures are written as SMILES.

By inhibition is commonly meant the drop in the measured response relative to a control, in per cent. A word on the IC50: it is the concentration at which inhibition is half-maximal. The low end stands for greater potency, the high end for weaker potency.

KRas WT, sequence (P01116 1-169 isoform P01116-2): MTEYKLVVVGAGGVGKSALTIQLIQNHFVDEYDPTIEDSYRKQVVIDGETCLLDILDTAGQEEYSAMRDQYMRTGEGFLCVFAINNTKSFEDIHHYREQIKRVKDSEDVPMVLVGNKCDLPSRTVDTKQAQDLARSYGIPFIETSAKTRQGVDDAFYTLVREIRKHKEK
KRas G12R, sequence (P01116 1-169 isoform P01116-2 G12R): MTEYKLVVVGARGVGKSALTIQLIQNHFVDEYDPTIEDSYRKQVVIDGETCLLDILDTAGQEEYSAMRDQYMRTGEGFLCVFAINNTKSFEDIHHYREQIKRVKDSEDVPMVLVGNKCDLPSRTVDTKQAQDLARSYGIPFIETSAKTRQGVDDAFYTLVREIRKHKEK
KRas G12A, sequence (P01116 1-169 isoform P01116-2 G12A): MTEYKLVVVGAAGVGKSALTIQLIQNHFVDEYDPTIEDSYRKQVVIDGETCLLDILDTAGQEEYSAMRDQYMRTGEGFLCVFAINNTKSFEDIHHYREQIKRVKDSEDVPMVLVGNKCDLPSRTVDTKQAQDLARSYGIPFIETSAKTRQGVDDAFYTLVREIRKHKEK

Regarding `CCc1c(F)ccc2cc(O)cc(N3CCc4c(nc(OC[C@@]56CCCN5C[C@H](F)C6)nc4N4CCCn5nc(C(=O)N6CC7CCC(C7)C6)cc5C4)C3)c12` [Example 302, 3-azabicyclo[3.2.1]octan-3-yl(5-(7-(8-ethyl-7-fluoro-3-hydroxynaphthalen-1-yl)-2-(((2R,7aS)-2-fluorohexahydro-1H-pyrrolizin-7a-yl)methoxy)-5,6,7,8-tetrahydropyrido[3,4-d]pyrimidin-4-yl)-5,6,7,8-tetrahydro-4H-pyrazolo[1,5-a][1,4]diazepin-2-yl)methanone], the inhibition at 0.01 µM was determined as 89% in assay [1]; 85% in [2]; 96% in [3]; 93% in assay [4]; 91% in assay [5]; 93% in [6]. Also, the concentration for half-maximal inhibition (IC50) was 26.3 nM in assay [7]; 9490 nM in assay [8]; 9 nM in assay [9]; 20 nM in assay [10]; 27 nM in [11]; 49 nM in assay [12]. Further, the IC50 in assay [13] was 167 nM; in assay [14], 6 nM; in assay [15] it was 3 nM; in assay [16], under 2 nM; in assay [17], under 2 nM. Besides, the inhibition at 0.1 µM amounted to 91% in [9]; 70% in assay [10]; 66% in assay [11]; 66% in [12]; 33% in [13]; 92% in [14].

In the case of `CCc1c(F)ccc2cc(O)cc(N3CCc4c(nc(OC[C@@]56CCCN5C[C@H](F)C6)nc4N4CCCn5nc(C(=O)N6C[C@@H](C)N[C@@H](C)C6)cc5C4)C3)c12` [Example 303, ((3 S,5R)-3,5-dimethylpiperazin-1-yl)(5-(7-(8-ethyl-7-fluoro-3-hydroxynaphthalen-1-yl)-2-(((2R,7aS)-2-fluorohexahydro-wH-pyrrolizin-7a-yl)methoxy)-5,6,7,8-tetrahydropyrido[3,4-d]pyrimidin-4-yl)-5,6,7,8-tetrahydro-4H-pyrazolo[1,5-a][1,4]diazepin-2-yl)methanone], the inhibition at 0.01 µM was determined as 97% in [1]; 98% in assay [2]; 100% in assay [3]; 99% in [4]; 98% in assay [5]; 98% in assay [6]. Besides, the half-inhibitory concentration (IC50) in [7] was 22.5 nM; in assay [8], 6700 nM; in assay [9], 2 nM; in assay [10] it was 36 nM; in [11], 35 nM; in assay [12], 73 nM. Moreover, the IC50 in assay [13] was 164 nM; in [14], 8 nM; in assay [15] it was under 2 nM; in [16], under 2 nM; in assay [17], under 2 nM. The inhibition at 0.1 µM in [11] turned out to be 62%; in assay [12], 34%; in assay [13], 3%; in [14] it was 98%.

On to `CCc1c(F)ccc2cc(O)cc(N3CCc4c(nc(OC[C@@]56CCCN5C[C@H](F)C6)nc4N4CCCn5nc(C(=O)N6CC7COCC6C7)cc5C4)C3)c12` (stereo partly drawn) [Example 306, 3-oxa-6-azabicyclo[3.2.1]octan-6-yl(5-(7-(8-ethyl-7-fluoro-3-hydroxynaphthalen-1-yl)-2-(((2R,7aS)-2-fluorohexahydro-1H-pyrrolizin-7a-yl)methoxy)-5,6,7,8-tetrahydropyrido[3,4-d]pyrimidin-4-yl)-5,6,7,8-tetrahydro-4H-pyrazolo[1,5-a][1,4]diazepin-2-yl)methanone], for which the inhibition at 0.01 µM in [1] came to 95%; in [2] it was 96%; in assay [3], 99%; in assay [4], 99%; in assay [5], 97%; in [6], 96%. Besides, the 50% inhibitory concentration (IC50) amounted to 7 nM in assay [7]; 2040 nM in assay [8]; 3 nM in assay [9]; 5 nM in assay [10]; 16 nM in assay [11]; 23 nM in assay [12]. Moreover, the 50% inhibitory concentration (IC50) in assay [13] is 58 nM; in assay [14] it was 1 nM; in assay [15] it was under 2 nM; in assay [16], under 2 nM; in assay [17], under 2 nM. The inhibition at 0.1 µM stood at 99% in assay [9]; 80% in assay [10]; 77% in assay [11]; 81% in assay [12]; 51% in [13]; 100% in assay [14].

For the compound `CCc1c(F)ccc2cc(O)cc(N3CCc4c(nc(OC[C@@]56CCCN5C[C@H](F)C6)nc4N4CCCn5nc(C(=O)N6CC[C@@H]7CC[C@H]6C7)cc5C4)C3)c12` [Example 338, (1S,5S)-2-azabicyclo[3.2.1]octan-2-yl(5-(7-(8-ethyl-7-fluoro-3-hydroxynaphthalen-1-yl)-2-(((2R,7aS)-2-fluorohexahydro-1H-pyrrolizin-7a-yl)methoxy)-5,6,7,8-tetrahydropyrido[3,4-d]pyrimidin-4-yl)-5,6,7,8-tetrahydro-4H-pyrazolo[1,5-a][1,4]diazepin-2-yl)methanone], the inhibition at 0.01 µM worked out at 92% in [1]; 90% in assay [2]; 97% in [3]; 97% in [4]; 92% in [5]; 93% in assay [6]. Besides, the concentration for half-maximal inhibition (IC50) in assay [7] came to 9.6 nM; in assay [8] it was 5430 nM; in assay [9], 6 nM; in assay [10], 11 nM; in assay [11], 21 nM; in [12], 67 nM. The IC50 in assay [13] is 226 nM; in [14] it was 7 nM; in [15], 2 nM; in assay [16], under 2 nM; in assay [17], under 2 nM. For the same compound, the inhibition at 0.1 µM in assay [9] was determined as 95%; in assay [10] it was 76%; in [11], 78%; in assay [12], 73%; in assay [13], 38%; in assay [14], 102%.
